According to patent US20230203485A1, “METHODS FOR MODULATING MHC-I EXPRESSION AND IMMUNOTHERAPY USES THEREOF” (Dana-Farber Cancer Institute, Inc., priority 2020, published 2023):

System: class I antigen presentation gene expression in MCC cell lines
Test: RNA-seq / DESeq2 differential expression of MCC cell lines at baseline and after IFN-γ stimulation
Assay type: cell-based, human
Settings: 11 MCC cell lines, baseline vs IFNγ; negative LFC = upregulation in IFNγ-treated
Experimental: FIG. 2A comprises RNA-seq heatmaps of class I antigen presentation gene expression in MCC lines and controls.
FIG. 2B is a volcano plot of differentially expressed genes (genes below FDR cutoff 0.01 are shown in yellow) between baseline and IFN-γ-treated MCC cell lines. Differential expression analysis was performed using DESeq2, and negative LFC indicates increased expression in +IFN-γ samples. IFN genes are highlighted in red.
RNA samples were first assessed for quality using the Agilent Bioanalyzer (DV200 metric). One hundred ng of RNA were used as the input for first strand cDNA synthesis using Superscript III reverse transcriptase and Illumina's TruSeq RNA Access Sample Prep Kit. Synthesis of the second strand of cDNA was followed by indexed adapter ligation with UMI (unique molecular index) adaptors. Subsequent PCR amplification enriched for adapted fragments. Amplified libraries were quantified, normalized, pooled, and hybridized with exome targeting oligos. Following hybridization, bead clean-up, elution and PCR was performed to prepare library pools for sequencing on Illumina flowcell lanes. Transcriptomes were sequenced to a coverage of at least 50 million reads in pairs.
Raw fastq files for fibroblast and keratinocyte control lines were downloaded from SRA using R Bioconductor package SRAdb (Mayakonda et al. (2018) supra; Zhu et al. (2013) BMC Bioinformatics 14 (1): 1-4) using accession codes SRP126422 (4 replicates from control samples ‘NN’) and SRP131347 (6 replicates with condition: control and genotype: control). These fastq files, along with those for the mkl1 and waga cell lines, were aligned using STAR version 2.7.3a (Dobin et al. (2013) Bioinformatics 29 (1): 15-21), using index genome reference file downloaded from ftp.ebi.ac.uk/pub/databases/gencode/Gencode_human/release_19/GRCh37.p13.genome.fa.gz, transcript annotation file downloaded from data.broadinstitute.org/snowman/hg19/star/gencode.v19.annotation.gtf, and with the following options: --twopassMode Basic, --outSAMstrandField intronMotif, --alignIntronMax 1000000, --alignMatesGapMax 1000000, --sjdbScore 2, --outSAMtype BAM Unsorted, --outSAMattributes NH HI NM MD AS XS, --outFilterType BySJout, --outSAMunmapped Within, --genomeLoad NoSharedMemory, --outFilterScoreMinOverLread 0, --outFilterMatchNminOverLread 0, --outFilterMismatchNmax 999, and outFilterMultimapNmax 20. Duplicates were marked with picard MarkDuplicates version 2.22.0-SNAPSHOT.
RNA-sequencing bam files for MCC tumor and cell line samples were downloaded from the Broad Genomics Firecloud/Terra platform using the Google Cloud Storage command line tool gsutil version 4.5 (github.com/GoogleCloudPlatform/gsutil/).
Gene counts were obtained from bam files using featureCounts version 2.0.0 (doi.org/10.1093/bioinformatics/btt656). Very lowly expressed genes with average count across samples less than 1 were excluded from analysis. Between-sample distance metrics were computed using the Euclidean distance on the vectors of variance-stabilized counts obtained from the vst function in the DESeq2 R Bioconductor package ([…]; Love et al. (2014) Genome Biology 15 (12): 550).
Differential expression analysis was carried out between (1) viral positive and viral negative samples (adjusting for cell line or tumor as a covariate), (2) cell line and tumor samples (adjusting for viral status as a covariate), and (3) IFNγ plus and minus samples (adjusting for viral status as a covariate) using the negative binomial GLM Wald test of DESeq2, where significance was assessed using the p-values adjusted for multiple comparisons under default settings. To account for potential global gene expression differences among sample groups, RUVg (Risso et al. (2014) […] 32 (9): 896-902) was used to estimate latent factors of unwanted variation from the list of housekeeping genes downloaded from www.tau.ac.il/˜elieis/HKG/HK_genes.txt. […]

Substance: IFN-y: type II interferon, recombinant human, used to treat MCC cells
- log2FoldChange FBXO6 (ENSG00000116663.6): −2.854
- log2FoldChange FREM3 (ENSG00000183090.5): −4.873
- log2FoldChange FZD5 (ENSG00000163251.3): −1.098
- log2FoldChange GBP1 (ENSG00000117228.9): −10.1
- log2FoldChange GBP1P1 (ENSG00000225492.2): −7.927
- log2FoldChange GBP2 (ENSG00000162645.8): −6.235
- log2FoldChange GBP3 (ENSG00000117226.7): −9.215
- log2FoldChange GBP4 (ENSG00000162654.8): −10.33
- log2FoldChange GBP5 (ENSG00000154451.10): −5.854
- log2FoldChange HCP5 (ENSG00000206337.6): −5.131
- log2FoldChange HELB (ENSG00000127311.5): −1.463
- log2FoldChange HERC5 (ENSG00000138646.4): −2.156
- log2FoldChange HERC6 (ENSG00000138642.10): −9.027
- log2FoldChange HLA-A (ENSG00000206503.7): −3.702
- log2FoldChange HLA-B (ENSG00000234745.5): −4.921
- log2FoldChange HLA-C (ENSG00000204525.10): −4.155
- log2FoldChange HLA-DMA (ENSG00000204257.10): −3.237
- log2FoldChange HLA-DMB (ENSG00000242574.4): −5.727
- log2FoldChange HLA-DOA (ENSG00000204252.8): −7.789
- log2FoldChange HLA-DOB (ENSG00000241106.2): −3.598
- log2FoldChange HLA-DPA1 (ENSG00000231389.3): −9.303
- log2FoldChange HLA-DPB1 (ENSG00000223865.6): −7.613
- log2FoldChange HLA-DQB1 (ENSG00000179344.12): −7.335
- log2FoldChange HLA-DRA (ENSG00000204287.9): −10.07
- log2FoldChange HLA-DRB1 (ENSG00000196126.6): −7.278
- log2FoldChange HLA-DRB5 (ENSG00000198502.5): −5.98
- log2FoldChange HLA-E (ENSG00000204592.5): −2.608
- log2FoldChange HLA-F (ENSG00000204642.9): −7.289
- log2FoldChange HLA-G (ENSG00000204632.7): −3.367
- log2FoldChange HLA-H (ENSG00000206341.6): −3.883
- log2FoldChange HLA-J (ENSG00000204622.6): −4.551
- log2FoldChange HLA-L (ENSG00000243753.1): −2.336
- log2FoldChange IDO1 (ENSG00000131203.8): −5.825
- log2FoldChange IFI6 (ENSG00000126709.10): −2.328
- log2FoldChange IFI16 (ENSG00000163565.14): −5.946
- log2FoldChange IFI44 (ENSG00000137965.6): −8.954
- log2FoldChange IFI44L (ENSG00000137959.11): −7.733
- log2FoldChange IFIH1 (ENSG00000115267.5): −4.034
- log2FoldChange IFIT1 (ENSG00000185745.8): −3.465
- log2FoldChange IFIT2 (ENSG00000119922.7): −6.152
- log2FoldChange IFIT3 (ENSG00000119917.9): −9.398
- log2FoldChange IFITM1 (ENSG00000185885.11): −8.763
- log2FoldChange IFITM3 (ENSG00000142089.11): −7.436
- log2FoldChange IFNB1 (ENSG00000171855.5): −3.53
- log2FoldChange IL7 (ENSG00000104432.8): −3.753
- log2FoldChange IL15 (ENSG00000164136.12): −6.781
- log2FoldChange IL15RA (ENSG00000134470.15): −6.483
- log2FoldChange IL17RC (ENSG00000163702.14): −1.188
- log2FoldChange IL18BP (ENSG00000137496.13): −1.497
- log2FoldChange INPPI (ENSG00000151689.8): −1.931
- log2FoldChange IRF1 (ENSG00000125347.9): −5.385
- log2FoldChange IRF2 (ENSG00000168310.6): −1.588
- log2FoldChange ISG15 (ENSG00000187608.5): −3.824
- log2FoldChange ITK (ENSG00000113263.8): −4.656
- log2FoldChange KCNIP4 (ENSG00000185774.10): −2.647
- log2FoldChange KDR (ENSG00000128052.8): −7.174
- log2FoldChange KIAA0040 (ENSG00000235750.5): −3.216
- log2FoldChange LAP3 (ENSG00000002549.8): −1.871
- log2FoldChange LGALS12 (ENSG00000133317.10): −4.156
- log2FoldChange LIPT1 (ENSG00000144182.12): −0.5688
- log2FoldChange LOC154761 (ENSG00000253882.2): −3.161
- log2FoldChange LY75 (ENSG00000054219.9): −2.87
- log2FoldChange MAJIN (ENSG00000168070.7): −3.183
- log2FoldChange MOB3C (ENSG00000142961.10): −1.494
- log2FoldChange MOV10 (ENSG00000155363.14): −1.652
- log2FoldChange MTMR9LP (ENSG00000220785.3): −0.5387
- log2FoldChange NOD1 (ENSG00000106100.6): −1.317
- log2FoldChange NRIR (ENSG00000225964.1): −3.724
- log2FoldChange NUB1 (ENSG00000013374.11): −1.521
- log2FoldChange NUGGC (ENSG00000189233.7): −3.265
- log2FoldChange OPTN (ENSG00000123240.12): −1.482
- log2FoldChange PARP3 (ENSG00000041880.10): −1.726
- log2FoldChange PARP9 (ENSG00000138496.12): −5.112
- log2FoldChange PARP10 (ENSG00000178685.9): −3.43
- log2FoldChange PARP12 (ENSG00000059378.8): −2.758
- log2FoldChange PARP14 (ENSG00000173193.9): −9.512
- log2FoldChange PARP15 (ENSG00000173200.8): −3.778
- log2FoldChange PLA2G16 (ENSG00000176485.6): −2.531
